Values after ≈ are worked out from the molar mass of the structure shown. Where two headings read alike, the source gives them in different places. Marks after values point to notes of the source that are not given here.
Experiments:
[1] = test system: IFN-γ; assay: Th1/Th2 cytokine measurement (cytometric bead array) in LPS-stimulated RAW 264.7 macrophages, IFN-γ; format: cell-based, mouse; conditions: 50 μM, 24 hr, LPS-induced RAW 264.7; reduced from 1.12 pg/mL
Protocol: (§1) RAW 264.7 cells were cultured at a concentration of 2 × 10^5 cells/mL in a 48-well microplate and allowed to adhere for 24 hr. Subsequently, they were subjected to lipopolysaccharide (LPS) treatment at a concentration of 0.1 µg/mL, along with psoralen at concentrations of 5, 20, and 50 µM. […] Following an incubation period of 24 hr, the supernatant was collected, and the levels of pro-inflammatory Th1 cytokines (IFN-γ, TNF-α, and IL-2), as well as anti-inflammatory Th2 cytokines (IL-4, IL-6, and IL-10) were quantified. The experimental protocol adhered to the manufacturer's guidelines and utilized the BD TM cytometric beads array human Th1/Th2 cytokine kit (BD-Biosciences). Data acquisition was performed using a BD LSR FortessaTM cell analyzer flow cytometer.

[2] = target: T1, COX-2 (Mus musculus, UniProt Q05769); assay: Fluorometric COX activity assay in LPS-stimulated RAW 264.7 cells, COX-2; format: cell-based; conditions: LPS 0.1 µg/mL, 24 hr, untreated control 113.81 µU/mg
T1 construct: the supernatant was collected for the COX activity assay; endogenous in cells; host or cells: RAW 264.7 macrophages, LPS-stimulated
T1 sequence (Q05769 18-604): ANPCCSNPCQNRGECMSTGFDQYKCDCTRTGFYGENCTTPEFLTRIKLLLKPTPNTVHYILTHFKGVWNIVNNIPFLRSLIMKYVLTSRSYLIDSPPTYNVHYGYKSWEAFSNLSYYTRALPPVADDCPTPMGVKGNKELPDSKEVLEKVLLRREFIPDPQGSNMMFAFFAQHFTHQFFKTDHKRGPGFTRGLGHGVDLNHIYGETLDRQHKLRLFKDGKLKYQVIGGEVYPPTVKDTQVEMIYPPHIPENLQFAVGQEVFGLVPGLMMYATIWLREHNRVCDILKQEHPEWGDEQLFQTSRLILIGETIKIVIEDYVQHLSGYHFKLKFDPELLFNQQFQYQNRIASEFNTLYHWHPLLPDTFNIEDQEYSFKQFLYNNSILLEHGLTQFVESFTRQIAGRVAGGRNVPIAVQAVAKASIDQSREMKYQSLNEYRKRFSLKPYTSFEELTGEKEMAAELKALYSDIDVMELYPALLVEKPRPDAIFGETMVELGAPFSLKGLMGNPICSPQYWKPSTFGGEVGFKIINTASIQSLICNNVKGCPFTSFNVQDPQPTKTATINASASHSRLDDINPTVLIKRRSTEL
Protocol: (§2) Evaluation of COX-1 and COX-2 enzyme activity was performed using the fluorometric COX activity assay kit provided by Biovision. RAW 264.7 cells were cultured at a density of 2 × 10^5 cells/mL in a 48-well microplate and allowed to adhere for a period of 24 hr. Subsequently, cells were treated with LPS at a concentration of 0.1 µg/mL and psoralen at concentrations of 5, 20, and 50 µM. The cyclooxygenase enzyme activity assay was performed after a 24 hr incubation period. To initiate the assay, cells were removed using TNE buffer containing Tris (40 mM), NaCl (150 mM), and EDTA (1 mM), followed by a washing step using 1x PBS. Cells were then resuspended in 1 mL of 1x PBS, transferred to a 1.5 mL tube, and subjected to centrifugation at 500x g for 3 min. The resulting pellet was resuspended in 0.5 mL of lysis buffer containing a protease inhibitor cocktail, followed by vortexing and incubation at 4°C for 5 min. Subsequently, the cell lysate was centrifuged at 12,000 x g for 3 min, and the supernatant was collected for the COX activity assay. The fluorometric cyclooxygenase activity assay kit provided by Biovision was utilized according to the manufacturer's instructions to assess COX activity. This assay incorporates specific inhibitors for COX-1 and COX-2 enzymes, allowing differentiation of their respective activities and those of other peroxidases.

[3] = target: T2, COX-1 (Mus musculus, UniProt P22437); assay: Fluorometric COX activity assay in LPS-stimulated RAW 264.7 cells, COX-1; format: cell-based; conditions: LPS 0.1 µg/mL, 24 hr, untreated control 95.19 µU/mg
T2 construct: endogenous in cells; host or cells: RAW 264.7 macrophages, LPS-stimulated
T2 sequence (P22437 27-602): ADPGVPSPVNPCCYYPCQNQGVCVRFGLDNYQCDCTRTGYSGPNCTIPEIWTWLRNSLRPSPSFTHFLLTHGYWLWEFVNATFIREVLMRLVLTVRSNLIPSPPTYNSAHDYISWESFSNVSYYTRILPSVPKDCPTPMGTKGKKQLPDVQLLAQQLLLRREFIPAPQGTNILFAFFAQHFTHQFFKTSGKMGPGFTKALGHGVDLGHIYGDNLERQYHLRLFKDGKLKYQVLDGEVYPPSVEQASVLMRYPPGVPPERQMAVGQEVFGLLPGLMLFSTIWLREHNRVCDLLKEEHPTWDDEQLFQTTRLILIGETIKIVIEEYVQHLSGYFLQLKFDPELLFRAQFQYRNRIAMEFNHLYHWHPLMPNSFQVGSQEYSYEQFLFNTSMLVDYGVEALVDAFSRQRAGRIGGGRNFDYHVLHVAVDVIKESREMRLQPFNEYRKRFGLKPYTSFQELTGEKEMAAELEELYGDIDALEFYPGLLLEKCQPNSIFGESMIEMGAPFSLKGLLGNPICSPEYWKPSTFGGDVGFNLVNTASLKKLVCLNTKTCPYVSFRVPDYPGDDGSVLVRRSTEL
Protocol: as §2

[4] = test system: IL-10; assay: Th1/Th2 cytokine measurement (cytometric bead array) in LPS-stimulated RAW 264.7 macrophages, IL-10; format: cell-based, mouse; conditions: 50 μM, 24 hr, LPS-induced RAW 264.7; increased from 0.857 pg/mL
Protocol: as §1

[5] = target: T3, 15-LOX from G. max (Glycine max, UniProt P08170); assay: Soybean LOX inhibition assay (ferrous oxidation-xylenol orange); format: biochemical; conditions: linoleic acid 140 µM, pH 7.4, 25°C, mean ± SD
T3 sequence (P08170 1-839): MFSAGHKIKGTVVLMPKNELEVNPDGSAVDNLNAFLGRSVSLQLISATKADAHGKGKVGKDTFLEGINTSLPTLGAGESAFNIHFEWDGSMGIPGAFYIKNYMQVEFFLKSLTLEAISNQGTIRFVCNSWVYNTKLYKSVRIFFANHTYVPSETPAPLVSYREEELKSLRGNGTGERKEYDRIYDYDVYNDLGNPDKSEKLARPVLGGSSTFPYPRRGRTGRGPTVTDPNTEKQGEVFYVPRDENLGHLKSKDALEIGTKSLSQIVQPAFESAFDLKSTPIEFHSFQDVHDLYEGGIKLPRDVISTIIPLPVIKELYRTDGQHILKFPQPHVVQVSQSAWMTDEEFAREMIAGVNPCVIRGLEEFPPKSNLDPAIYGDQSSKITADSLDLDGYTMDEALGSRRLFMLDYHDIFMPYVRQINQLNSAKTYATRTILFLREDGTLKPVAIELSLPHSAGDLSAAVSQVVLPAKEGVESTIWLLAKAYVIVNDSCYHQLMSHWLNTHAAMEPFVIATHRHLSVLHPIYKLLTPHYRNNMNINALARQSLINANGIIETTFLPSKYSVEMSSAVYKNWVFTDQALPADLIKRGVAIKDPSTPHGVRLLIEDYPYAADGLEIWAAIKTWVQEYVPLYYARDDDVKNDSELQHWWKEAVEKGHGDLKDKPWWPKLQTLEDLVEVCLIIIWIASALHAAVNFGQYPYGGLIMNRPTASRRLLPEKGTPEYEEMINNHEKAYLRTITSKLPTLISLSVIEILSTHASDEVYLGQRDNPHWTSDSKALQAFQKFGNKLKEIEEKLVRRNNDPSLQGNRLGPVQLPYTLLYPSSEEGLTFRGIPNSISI
Protocol: The assay was conducted following a previously described methodology with minor adjustments. The assay is based on the measurement of the formation of the Fe3+/xylenol orange complex on a spectrophotometer at a wavelength of 560 nm. 15-LOX from G. max was incubated with samples or standard inhibitors at a temperature of 25°C for 5 min. The concentration ranges of the samples ranged from 200 to 1.56 µg/mL for extracts and fractions and from 100 to 0.78 µM for compounds. Subsequently, linoleic acid (at a final concentration of 140 µM) in Tris–HCl buffer (at a pH of 7.4 and a concentration of 50 mM), and the mixture was incubated at a temperature of 25°C for 20 min in the absence of light. The assay was concluded by adding 100 µL of FOX reagent, which consisted of sulfuric acid (at a concentration of 30 mM), xylenol orange (at a concentration of 100 µM), and iron (II) sulfate (at a concentration of 100 µM) in a methanol/water mixture (at a ratio of 9 : 1). For control, only the LOX solution and buffer were pipetted into the wells. The blanks (background) contained the LOX enzyme during incubation, but the substrate (linoleic acid) was added after the addition of the FOX reagent. […] The percentage inhibition was calculated using the following formula: % inhibition = ((Acontrol–Ablank)−(Asample−Ablank)/(Acontrol−Ablank)) ×100. Here, Acontrol represents the absorbance of the control well, Ablank represents the absorbance of the blank well, and Asample represents the absorbance of the sample well.

[6] = test system: IL-4; assay: Th1/Th2 cytokine measurement (cytometric bead array) in LPS-stimulated RAW 264.7 macrophages, IL-4; format: cell-based, mouse; conditions: 50 μM, 24 hr, LPS-induced RAW 264.7; increased from 0.81 pg/mL
Protocol: as §1

[7] = test system: IL-2; assay: Th1/Th2 cytokine measurement (cytometric bead array) in LPS-stimulated RAW 264.7 macrophages, IL-2; format: cell-based, mouse; conditions: 50 μM, 24 hr, LPS-induced RAW 264.7; reduced from 1.032 pg/mL
Protocol: as §1

[8] = test system: NO production in LPS-activated RAW 264.7 macrophages; assay: Inhibition of nitric oxide (NO) production in LPS-activated RAW 264.7 macrophages (Griess reagent); format: cell-based, mouse; conditions: for IC50: Mus musculus
Protocol: The mouse-derived macrophage cell line RAW 264.7, purchased from the American Type Culture Collection (ATCC TIB-71, Rockville, MD, USA), was cultured in DMEM medium supplemented with 10% FCS and 1% penicillin/streptomycin/fungizone (PSF) under conventional cell culture conditions at a temperature of 37°C and a carbon dioxide concentration of 5% in a controlled humid atmosphere. Routine maintenance in culture (passage) was performed following ATCC instructions.
The RAW 264.7 macrophage cells were introduced into 96 well microtiter plates at a density of 2 × 10^5 cells/mL. Subsequently, cells were subjected to activation through incubation in a medium consisting of 1 µg/mL LPS alone, acting as the control. Furthermore, lipopolysaccharide was combined with varying concentrations of samples dissolved in DMSO (concentration ranges were 200–1.56 µg/mL for extracts and fractions and 100–0.78 µM for compounds). […] The quantity of nitric oxide released from macrophages was assessed using Griess reagent as previously described. All experiments for the measurement of nitric oxide inhibition were conducted three times in triplicate.

[9] = test system: IL-6; assay: Th1/Th2 cytokine measurement (cytometric bead array) in LPS-stimulated RAW 264.7 macrophages, IL-6; format: cell-based, mouse; conditions: 50 μM, 24 hr, LPS-induced RAW 264.7; increased from 156.96 pg/mL
Protocol: as §1

[10] = test system: TNF-α; assay: Th1/Th2 cytokine measurement (cytometric bead array) in LPS-stimulated RAW 264.7 macrophages, TNF-α; format: cell-based, mouse; conditions: 50 μM, 24 hr, LPS-induced RAW 264.7; reduced from 4,418.86 pg/mL
Protocol: as §1

[11] = test system: NO production in LPS-stimulated RAW 264.7 murine macrophages; set-up: method as in Choi et al. [47]; conditions: isolated from Trachelospermum jasminoides, ref Choi et al. [47]; cited from earlier work
[12] = RAW264.7, LPS 1 µg/mL activated RAW 264.7 macrophage cells, mean ± SD, read-out: NO inhibition IC50

Molecule: O=c1ccc2cc3ccoc3cc2o1 [(1), psoralen]
- IFN-γ level [1]: 0.56 pg/mL
- COX-2 activity ([2]; psoralen 5 μM): 88.33 µU/mg
- COX-2 activity ([2]; psoralen 20 μM): 58.1 µU/mg
- COX-2 activity ([2]; psoralen 50 μM): 43.84 µU/mg
- COX-1 activity ([3]; psoralen 5 μM): 44.35 µU/mg
- COX-1 activity ([3]; psoralen 20 μM): 31.25 µU/mg
- COX-1 activity ([3]; psoralen 50 μM): 22.73 µU/mg
- IL-10 level [4]: 1.122 pg/mL
- IC50 [5]: 18.4 µM
- IL-4 level [6]: 2.22 pg/mL
- IL-2 level [7]: 0.551 pg/mL
- IC50 [8, 12]: 1.19 ± 0.45 µg/mL (≈ 6.39 µM)
- IL-6 level [9]: 255.31 pg/mL
- TNF-α level [10]: 1,032.66 pg/mL

Molecule: octadecanyl-3[4-hydroxyphenyl]-prop-2-enoate [(2)]
- 15-LOX inhibition IC50 [5]: 35.57 ± 2.35^j μg/mL
- NO inhibition IC50 ([8]; LPS 1 µg/mL activated RAW 264.7 macrophage cells, mean ± SD): 39.41 ± 2.29^g μg/mL

Molecule: CC[C@H](CC[C@@H](C)[C@H]1CC[C@H]2[C@@H]3CC=C4C[C@@H](O[C@@H]5O[C@H](CO)[C@@H](O)[C@H](O)[C@H]5O)CC[C@]4(C)[C@H]3CC[C@]12C)C(C)C [(3), β-sitosterol glucoside]
- IC50 [5]: 25.3 µM
- Reduction of NO production [11]: 72.8%
- IC50 [8, 12]: 26.1 ± 3.01 µg/mL (≈ 45.3 µM)

Molecule: COc1ccc2c(c1)c(CC(=O)O)c(C)n2C(=O)c1ccc(Cl)cc1 [Indomethacin, indomethacin, reference compound]
- IC50 ([8]; RAW264.7, read-out: NO inhibition IC50): 3.79 ± 0.88 µg/mL (≈ 10.6 µM)

From paper PMC11257762, “Psoralen Isolated from the Roots of Dorstenia psilurus Welw. Modulate Th1/Th2 Cytokines and Inflammatory Enzymes in LPS-Stimulated RAW 264.7 Macrophages” (Mediators of Inflammation, 2024)
